Literature values as cited in US11759449B2, “Methods for reducing oxidative effects of free radicals” (Hugg LLC, priority 2021, dated 2023).

Columns and labels:
[1] = background, refs (2, 3)
[2] = background, refs (2, 3); remark: listed apart in the source

Q: What does the source list for `Oc1ccc(C=Cc2cc(O)cc(O)c2)cc1` [resveratrol]?
A: bioavailability [1]: poor; solubility [2]: poor
